Measured values as given in patent US7776833B2, “Use of cyclic bioisosters of purine system derivatives for treating diseases produced by disorders of niterergic and dopaminergic systems” (priority 2003, dated 2010).

Columns and labels:
Format in all cases: in vivo, Wistar rats
[1] = test system: physical dependence from morphine (morphine abstinence); test: Morphine abstinence syndrome, signs scored in the open field test; conditions: Morphine − (morphine + compound); compound 3 x 20 mg/kg intramuscularly; one value for the three compounds
Protocol: Thirty six hours after the last injection selected motor and autonomice parameters which are specific symptoms of abstinence were monitored in the <<open field>> test (an arena with a diameter of 120 cm and wall height of 40 cm).
Med., 2002, V.29, p.1-6.). The observable signs were recorded quantitatively (if it was possible) with further assignment of an index to each sign (depending on the specific feature of the sign) and calculation of the sum of scores. The expression of the abstinence syndrome was presented as a sum of scores. The results were processed using nonparametric statistical analysis based on the Mann-Whitney test.

[2] = test system: nitrites and nitrates (NOx-); test: Measurement of nitrates/nitrites (NOx-) in brain regions after the morphine abstinence experiment; conditions: 3 x 20 mg/kg intramuscularly
Protocol: (§1) After the above experiments the rat brains were isolated and immediately placed in the ice cold 0.9% solution of sodium chloride. After cooling the following structures were isolated from the brain: cerebral cortex, hippocampus, mesencephalon, striatum, brainstem, hypothalamus and cerebellum. The isolated tissue was homogenized in a Potter S homogenizer for 3 minutes at 1500 rpm in 4-5 volumes of 20 mM HEPES (pH 7.5) at 4° C. The supernatants were centrifuged for 30 minutes at 11000 g at 4° C., and aliquots of the obtained supernatants were taken for determining nitrates and nitrites (NOx-), while the remaining part was mixed with cooled 20 mM of HEPES (pH 7.5), containing 0.5 mM ethylenediamine tetraacetate (EDTA), 1 mM dithiotreitol (DDT), 1 mM phenylmethylsulfonyl fluoride (PMSF), aprotinine and leupeptine at a concentration of 5 μg/ml, this mixture being used for determining nitric oxide synthase (NOS) activity.
To estimate the intensity of metabolism of nitric oxide in rats, quantitative determination of stable metabolites of nitrogen oxide-nitrites and nitrates (NOx-) was performed using a fluorometric method by fluorescence of naphthotriazole, a product of reaction of 2,3- diaminonaphthalene (DAN) and nitrite in an acidic medium (Misko T. R., Schilling R. J., Salvemini D. et al. A fluorometric assay for the measurement of nitrite in biological samples. Anal. Biochem., 1993, V. 214, p.11-16) with modifications (Lei B., Adachi N., Nagaro T., Arai T. Measurement of total nitric oxide metabolite (NO (x) (-)) levels in vivo. Brain. Res. Protoc., 1999, V. 4, p. 415-419).
The supernatants of brain deproteinized at 100° C. were placed in a nitrite recovery system containing 0.125 unit/ml of nitrate reductase, 25 μM NADPH and 25 μM FAD prepared in 20 mM Tris-HCl buffer pH 7.6 and incubated for 30 minutes at 37° C. For oxidation of NADPH a lactate dehydrogenase (LDH)/pyruvate system was used. Then 316.0 μM DAN solution in 0.62 M HCl was added and the mixture was incubated for 10 minutes in dark. For stabilization of fluorescence of the formed naphthotriazole, 280 mM NaOH was added. The fluorescence intensity was measured using spectrofluorometer Hitachi F-3000 at a wavelength of excitation 365 nm and emission 405 nm. To calculate the concentration of NOx- in the brain a standard solution of sodium nitrate was used. The concentration of NOx- was expressed in nmol/mg of protein.
(§2) The content of protein in the samples was determined by the Bradford method (Bradford M. M. A rapid and sensitive method for quantitation of microgram quantities of protein using the principle of protein binding . Anal. Biochem., 1976, V. 72, p. 248-254) using Coumassi dye. The statistical analysis was performed using methods appropriate for respective experiments. The data are expressed as mean±standard error of mean.

[3] = test system: nitric oxide synthase (NOS); test: Nitric oxide synthase activity in brain regions, radiometric [3H]L-citrulline method; conditions: 3 x 20 mg/kg intramuscularly
Protocol: as §1
The activity of nitric oxide synthase (NOS) was determined using a radiometric method by the rate of L-citrulline accumulation in a reaction of [^3H] L-arginine oxidation catalyzed by NOS (Bredt M., Snyder S. Nitric oxide mediates glutamate-linked enhancement of cGMP levels in the cerebellum. Proc. Natl. Acad. Sci., USA, 1989, V.86, p.9030-9033). The formation of L-citrulline in this reaction is equivalent to a biosynthesis of nitric oxide.
The reaction was initiated by adding brain supernatant in the reaction medium containing 2 μCi/ml of [3H] L-arginine, 20 mM HEPES (pH 7.4), 0.2 mM CaCl2, 5 μM FAD, 5 μM FMN, 1 mM NADPH, 50 μM of BH4. After 15-60 minutes of incubation at 37° C. a suspension of Dowex 50WX8-400 (Na^+-form), which sorbs unreacted [^3H]L-arginine, but not [^3H] L-citrulline was added to the samples. After the sorption the radioactivity of the samples was determined on a scintillation counter SL-4000 (“Intertechnique”). The activity of Ca^2+-dependent and Ca^2+-independent NOS isoforms was determined by the difference of rates of [^3H]L-citrulline formation in three parallel samples containing 2 mM EDTA (Ca^2+ chelator), 2 mM EDTA+2 mM L-NAME (inhibitor all NOS isoforms) or without inhibitors. The enzyme activity was expressed in rnol [^3H]L-citrulline acumulated per 1 minute on 1 mg of supernatant protein.
as §2

[4] = Groups Nos. 3-14, compound without morphine, one value for all 12 compounds
[5] = Morphine + compound, one value for the three compounds

| Structure (SMILES) | Authentic differences (ξ-square criterion) in appearance of signs of abstinence: <<Wet dog>> shakes [1] | Authentic differences (ξ-square criterion) in appearance of signs of abstinence: Aggression [1] | Authentic differences (ξ-square criterion) in appearance of signs of abstinence: Convulsions [1] | Authentic differences (ξ-square criterion) in appearance of signs of abstinence: Diarrhea [1] | Authentic differences (ξ-square criterion) in appearance of signs of abstinence: Dyspnea [1] | Authentic differences (ξ-square criterion) in appearance of signs of abstinence: Forelimb jogging [1] | Authentic differences (ξ-square criterion) in appearance of signs of abstinence: Grit with teeth [1] | Authentic differences (ξ-square criterion) in appearance of signs of abstinence: Mastication [1] | Authentic differences (ξ-square criterion) in appearance of signs of abstinence: Piloerection [1] | Authentic differences (ξ-square criterion) in appearance of signs of abstinence: Ptosis [1] | Authentic differences (ξ-square criterion) in appearance of signs of abstinence: Rhinorrhea [1] | Authentic differences (ξ-square criterion) in appearance of signs of abstinence: Squeak when touched [1] | Nitrites, brainstem [2, 4] | Nitrites, cerebellum [2, 4] | Nitrites, cerebral cortex [2, 4] | Nitrites, hippocampus [2, 4] | Nitrites, hypothalamus [2, 4] | Nitrites, midbrain [2, 4] | Nitrites, striatum [2, 4] | Nitrites, brainstem [2, 5] | other results |
| --- | --- | --- | --- | --- | --- | --- | --- | --- | --- | --- | --- | --- | --- | --- | --- | --- | --- | --- | --- | --- | --- |
| O=c1[nH][nH]c(=O)c2ncncc12.[Li] [Compound 35, lithium salt of pyrimido[4,5-d]-6H-pyridazine-5,8-dione] | 1.0000 | 0.8456 | 0.5578 | 0.0001 | 0.0685 | 0.9321 | 0.7003 | 0.1888 | 0.2345 | 0.0232 | 0.2935 | 0.2035 | 6.31 ± 0.58 nmol/mg of protein | 6.66 ± 0.63 nmol/mg of protein | 4.31 ± 0.37 nmol/mg of protein | 6.47 ± 0.72 nmol/mg of protein | 6.77 ± 0.83 nmol/mg of protein | 6.65 ± 0.70 nmol/mg of protein | 6.11 ± 0.29 nmol/mg of protein | 6.87 ± 0.81 nmol/mg of protein | Nitrites, cerebellum [2, 5]: 5.93 ± 0.54 nmol/mg of protein; Nitrites, cerebral cortex [2, 5]: 4.84 ± 0.31 nmol/mg of protein; Nitrites, hippocampus [2, 5]: 5.31 ± 0.33 nmol/mg of protein; Nitrites, hypothalamus [2, 5]: 6.77 ± 0.46 nmol/mg of protein; Nitrites, midbrain [2, 5]: 5.95 ± 0.52 nmol/mg of protein; Nitrites, striatum [2, 5]: 3.57 ± 0.42 nmol/mg of protein; Activity of NOS, hippocampus [3, 4]: 3.09 ± 0.16 nmol/min/mg of protein; Activity of NOS, hypothalamus [3, 4]: 5.45 ± 0.24 nmol/min/mg of protein; Activity of NOS, midbrain [3, 4]: 2.60 ± 0.29 nmol/min/mg of protein; Activity of NOS, striatum [3, 4]: 1.26 ± 0.08 nmol/min/mg of protein; Activity of NOS, hippocampus [3, 5]: 2.65 ± 0.15 nmol/min/mg of protein; Activity of NOS, hypothalamus [3, 5]: 5.56 ± 0.34 nmol/min/mg of protein; Activity of NOS, midbrain [3, 5]: 1.89 ± 0.27 nmol/min/mg of protein; Activity of NOS, striatum [3, 5]: 1.34 ± 0.09 nmol/min/mg of protein |
| Nc1cnc2c(=O)n([C@@H]3O[C@H](CO)[C@@H](O)[C@H]3O)[nH]c(=O)c2n1.[Na] [Compound 21, sodium salt of 3-amino-7-(β-D-ribofuranosile)pyrazino[2,3-d]-6H-pyridazine-5,8-dione] | 0.7821 | 0.7921 | 0.3456 | 0.0067 | 0.0567 | 0.6745 | 0.2994 | 0.1975 | 0.2567 | 0.0105 | 0.2131 | 0.1968 | 6.31 ± 0.58 nmol/mg of protein | 6.66 ± 0.63 nmol/mg of protein | 4.31 ± 0.37 nmol/mg of protein | 6.47 ± 0.72 nmol/mg of protein | 6.77 ± 0.83 nmol/mg of protein | 6.65 ± 0.70 nmol/mg of protein | 6.11 ± 0.29 nmol/mg of protein | 7.07 ± 0.85 nmol/mg of protein | Nitrites, cerebellum [2, 5]: 5.76 ± 0.49 nmol/mg of protein; Nitrites, cerebral cortex [2, 5]: 4.62 ± 0.27 nmol/mg of protein; Nitrites, hippocampus [2, 5]: 5.27 ± 0.41 nmol/mg of protein; Nitrites, hypothalamus [2, 5]: 6.87 ± 0.75 nmol/mg of protein; Nitrites, midbrain [2, 5]: 5.99 ± 0.58 nmol/mg of protein; Nitrites, striatum [2, 5]: 3.57 ± 0.42 nmol/mg of protein; Activity of NOS, hippocampus [3, 4]: 3.09 ± 0.16 nmol/min/mg of protein; Activity of NOS, hypothalamus [3, 4]: 5.45 ± 0.24 nmol/min/mg of protein; Activity of NOS, midbrain [3, 4]: 2.60 ± 0.29 nmol/min/mg of protein; Activity of NOS, striatum [3, 4]: 1.26 ± 0.08 nmol/min/mg of protein; Activity of NOS, hippocampus [3, 5]: 2.33 ± 0.11 nmol/min/mg of protein; Activity of NOS, hypothalamus [3, 5]: 5.47 ± 0.32 nmol/min/mg of protein; Activity of NOS, midbrain [3, 5]: 2.03 ± 0.31 nmol/min/mg of protein; Activity of NOS, striatum [3, 5]: 1.21 ± 0.10 nmol/min/mg of protein |
